# Source: patent US10588896B2, “Agents for the treatment of retroviral infectious diseases” (IMMUNOLOGIK GMBH, priority 2014, dated 2020)
# Entries after “also recorded” stand apart in the source; their conditions may differ. Read-outs that look alike come from different tables or passages of the source.
# Tests used:
# HIV-1NL4-3 (X4 tropic) = assay: HIV-1 replication in infected PBMC cultures (T cells), reverse transcriptase activity in supernatant; assay type: cell-based; settings: for HIV-1 replication / inhibition of the HIV-1 replication / reduction of the HIV-1 replication capacity (AUC) / concentration beginning with which HIV-1 replication is inhibited: T cells; for HIV-1 replication: structured and permanent treatment; for reduction of the HIV-1 replication capacity (AUC): 6 donors; for concentration beginning with which HIV-1 replication is inhibited: substance alone
# Description: According to the invention, isolated primary human peripheral blood mononuclear cell (PBMC) cultures were infected to this aim with the virus strain HIV-1NL4-3(X4 tropic) or HIV-1 NLNL4-3(R5 tropic). […] The treatment with DUB inhibitors was carried out over the entire experimental period (“permanent treatment”) or only on Day 1 and Day 3 after infection (“structured treatment”). In the infection with HIV-1NL4-3 (R5 tropic), only a permanent treatment was performed. Each 2-3 days samples from the cell culture supernatants were taken, frozen and later on used for determining reverse transcriptase activity. Concomitantly, 80% of the cell culture medium was replaced and fresh PR-619 was added. Reverse transcriptase activity (ccpm) was determined in the cell-free cell culture supernatants and plotted against time (FIGS. 4A and 4B; the black arrows indicate the treatment with PR-619).
# For six different donors the area under the curve (AUC) in the HIV-1 replication profiles after infection of PBMCs with T-cell tropic virus was determined, representing the HIV-1 replication capacity.
# Experiments were carried out as described in Example 2. […]
# HIV-1NL4-3 (R5 tropic) = assay: HIV-1 replication in infected PBMC cultures (macrophages), reverse transcriptase activity in supernatant; assay type: cell-based; settings: for reduction of the HIV-1 replication capacity: 5 donors
# Source text: As could be shown in the preceding example that PR-619 inhibits the late processes in Gag processing this effect on the spread of infection was investigated. According to the invention, isolated primary human peripheral blood mononuclear cell (PBMC) cultures were infected to this aim with the virus strain HIV-1NL4-3(X4 tropic) or HIV-1 NLNL4-3(R5 tropic). One day after infection cells were washed with PBS (phosphate buffer saline), provided with fresh medium containing the DUB inhibitor PR-619 in several non-cytotoxic concentrations (3.5 μM, 7 μM, 14 μM, 28 μM). The treatment with DUB inhibitors was carried out over the entire experimental period (“permanent treatment”) or only on Day 1 and Day 3 after infection (“structured treatment”). In the infection with HIV-1NL4-3 (R5 tropic), only a permanent treatment was performed. Each 2-3 days samples from the cell culture supernatants were taken, frozen and later on used for determining reverse transcriptase activity. Concomitantly, 80% of the cell culture medium was replaced and fresh PR-619 was added. Reverse transcriptase activity (ccpm) was determined in the cell-free cell culture supernatants and plotted against time (FIGS. 4A and 4B; the black arrows indicate the treatment with PR-619).
# In permanent treatment 3.5 μM yielded a reduction by 35%(±8%), 7 μM a reduction by 60%(±9%) and 14 μM by 100%.
# For comparative purposes, the anti-retroviral effect found for PR-619 was compared with three other DUB inhibitors P005091, WP1130 and P22077. Experiments were carried out as described in Example 2.
# In order to clarify the question whether a combined permanent treatment with PR-619 and the proteasome inhibitor bortezomib (Velcade®) causes a synergistic effect on the replication capacity of HIV-1, a cross titration was carried out with both substances (analogous to Example 2 and 3). Herein, PBMC cultures were treated permanently after infection with the virus strain HIV-1NL4-3, first only with the DUB inhibitor PR-619 or with the proteasome inhibitor bortezomib in non-toxic increasing concentrations (PR-619: 0.3 μM, 0.9 μM, 2.75 μM and 8 μM; bortezomib: 0.6 nM, 1.5 nM, 5.3 nM and 16 nM).
# Herein, the cells were treated permanently with constantly 0.6 nM bortezomib and increasing concentrations of PR-619 (0.3 μM, 0.9 μM, 2.7 μM and 8 μM). Experiments were carried out as described in Example 2. […] The DUB inhibitor PR-619 is able to inhibit the HIV-1 replication beginning with a concentration of 2.7 μM (FIG. 12B).
# [1] = tested on: HIV-1NL4-3 (X4-tropic) or HIV-1NL4-3 (R5-tropic); assay: HIV-1 replication in human lymphoid aggregate culture (HLAC) ex vivo tonsillar tissue; assay type: cell-based; settings: for reduction of the HIV-1 replication capacity: T cells and macrophages, permanent treatment, 3 replication profiles
# Description: In order to substantiate the inhibition of the HIV replication under treatment with PR-619, as observed in Example 2, according to the invention human ex vivo cultivated tonsillar tissue was infected with the virus strain HIV-1NL4-3 (X4-tropic) or HIV-1NL4-3 (R5-tropic). The experiments were carried out as described in Example 2.
# [2] = tested on: MHC-I antigen presentation of Gag-derived epitopes; assay: MHC-I antigen presentation of Gag-derived SL epitope in HeLa-Kb cells, FACS with mAB 25D1.16; assay type: cell-based, human; settings: HeLa-Kb cells transfected with Gag-SL, 7 and 14 μM, dose-dependent
# Source text: Since there is no conformation-dependent MHC-I specific antibody that could detect Gag epitopes bound to human MHC-I molecules the ovalbumin-derived sequence […] (SL) was introduced as a model epitope into the non-structured SP1 spacer region of Gag. For measuring the MHC-I antigen presentation, HeLa cells constitutively expressing the murine SL-binding MHC-I allotype H2-Kb (HeLa-Kb) (Porgador et al., 1997, Immunity 6(6), 715-726) were transfected with expression plasmids coding for Gag-SL proteins. Performing flow cytometric analyses the monoclonal antibody (mAB) 25D1.16 was used which recognizes specifically SL in the complex with H2-Kb.
# 24 h after transfection the cells were incubated overnight with different concentrations of the DUB inhibitor PR-619 (7 and 14 μM).
# Then, an acid wash (acid washing buffer pH 3) was carried out for removing the H2-Kb-SL complexes from the cell surface. Thereafter, the cells were incubated with and without PR-619 for 4 h at 37° C. and then the newly loaded H2-Kb-SL complexes at the cell surface under inhibition with PR-619 were determined by FACS analysis with the monoclonal AB 25D1.16. For compensating possible differences in the expression level of Gag-SL, the mean fluorescence intensity (MFI) of the 25D1.16 staining was normalized to the MFI of the intracellular Gag signal.
# HLAC cultures = assay: WST assay cytotoxicity in HLAC cultures from ex vivo tonsillar tissue; assay type: cell-based, human
# [3] = tested on: HIV-1 Gag structure proteins; assay: Western Blot analysis of HIV-1 Gag processing in HeLa cells transfected with pNLΔenv (cell and VLP fraction); assay type: cell-based
# Description: In order to investigate whether PR-619 and its derivatives inhibit the processing of HIV-1 Gag structure proteins, Western Blot (WB) analyses were carried out. Therefore, HeLa cell cultures were transfected with the pNLΔenv plasmid which encodes for HIV-1 proteins excluding the env envelope proteins. This enables the production of virus-like particles (VLPs), an established in vitro model in HIV-1 research. 24 h after transfection the cells were transferred to reaction vessels, and a pre-incubation with PR-619 for 1 h was performed. Thereupon, the cells were washed three times with PBS and incubated for 4 h in fresh RPMI medium either with 20 μM PR-619 (Merck-Millipore) or with the corresponding amount of DMSO as solvent control at 37° C.
# Then a separation into a cell and a VLP fraction was effected by means of centrifugation. VLPs were purified from the cell culture supernatants via a 20% sucrose cushion. Cells were then washed with PBS and lysed with RIPA buffer. Protein concentrations were determined by means of Bradford protein assays and assimilated for the respective lysates. […]
# A densitometric evaluation of Gag processing in the VLP fraction was carried out with the analysis program AIDA®. The densitometric evaluation allows for the quantification of signal intensities in Western Blot and thus conclusions on the quantity of a certain protein in the sample. […]
structure (smiles),measurement,setting,value
"CC(=O)c1cc([N+](=O)[O-])c(Sc2cccc(Cl)c2Cl)s1 [P005091, 1-[5-[(2,3-dichlorophenyl)thio]-4-nitro-2-thienyl]-ethanone, reference compound]",toxicity (WST assay),"PBMC cultures; 0.75-3 μM, day 13",shows no toxicity
same,HIV-1 replication,"HIV-1NL4-3 (X4 tropic); 0.75 μM, 1.5 μM and 3 μM",does not inhibit HIV-1 replication
same,HIV-1 replication,"HIV-1NL4-3 (R5 tropic); 0.75 μM, 1.5 μM and 3 μM",does not inhibit HIV-1 replication
"CC(=O)c1cc([N+](=O)[O-])c(Sc2ccc(F)cc2F)s1 [P22077, reference compound]",general cytotoxic damage of the host cell,"PBMC cultures; 7.5 μM, 15 μM, 30 μM and 60 μM",does not exist
same,HIV replication,"HIV-1NL4-3 (X4 tropic); 7.5 μM, 15 μM, 30 μM and 60 μM",nearly complete inhibition of HIV replication
"N#CSc1cc(SC#N)c(N)nc1N [PR-619, 2,6-diaminopyridine-3,5-bis(thiocyanate)]",concentration at which a clear toxic effect starts,"PBMC cultures; PBMC, 15 days",28 µM
same,toxic effect (WST assay),"PBMC cultures; antivirally effective concentrations, observation period of 15 days",did not display any significant toxic effect; also recorded: does not display a significant toxic effect
same,toxic effect (WST assay),"PBMC cultures; highest used concentration of 8 μM, permanent treatment",did not show either a clear toxic effect
same,inhibitory effect on the HIV-1 replication,[1]; 1.25 μM,did not exert an inhibitory effect
same,inhibition of the replication,"[1]; 2.5 μM, 5 μM and 10 μM","clear, respectively complete inhibition of the replication"
same,reduction of the HIV-1 replication capacity,[1]; 2.5 μM,40%(±9%)
same,reduction of the HIV-1 replication capacity,[1]; 5 μM,86%(±2%)
same,reduction of the HIV-1 replication capacity,[1]; 10 μM,completely
same,increase of MHC-I antigen presentation of Gag-derived epitopes,[2],6 fold
same,antiviral efficacy (concentration),HIV-1NL4-3 (X4 tropic); PBMC,about 3.5 μM
same,inhibition of the HIV-1 replication,"HIV-1NL4-3 (X4 tropic); 3.5 μM, permanent treatment",complete
same,inhibition of the HIV-1 replication,"HIV-1NL4-3 (X4 tropic); 3.5 μM, structured treatment",clear
same,reduction of the HIV-1 replication capacity (AUC),"HIV-1NL4-3 (X4 tropic); permanent treatment, 3.5 μM",50%(±16%)
same,reduction of the HIV-1 replication capacity (AUC),"HIV-1NL4-3 (X4 tropic); permanent treatment, 7 μM",97%(±15%)
same,reduction of the HIV-1 replication capacity (AUC),"HIV-1NL4-3 (X4 tropic); permanent treatment, 14 μM",100%
same,concentration beginning with which HIV-1 replication is inhibited,HIV-1NL4-3 (X4 tropic); permanent treatment,2700 nM
same,reduction of the HIV-1 replication capacity (AUC),"HIV-1NL4-3 (X4 tropic); structured treatment, 3.5 μM",23%(±14%)
same,reduction of the HIV-1 replication capacity (AUC),"HIV-1NL4-3 (X4 tropic); structured treatment, 7 μM",94%(±14%)
same,reduction of the HIV-1 replication capacity (AUC),"HIV-1NL4-3 (X4 tropic); structured treatment, 14 μM",100%
same,reduction of the HIV-1 replication capacity,"HIV-1NL4-3 (R5 tropic); permanent treatment, 3.5 μM",35%(±8%)
same,reduction of the HIV-1 replication capacity,"HIV-1NL4-3 (R5 tropic); permanent treatment, 7 μM",60%(±9%)
same,reduction of the HIV-1 replication capacity,"HIV-1NL4-3 (R5 tropic); permanent treatment, 14 μM",100%
same,toxic effect (WST assay),"HLAC cultures; all applied antiretrovirally effective concentrations, 15 days",did not display any significant toxic effect
same,toxic effects (WST assay),HLAC cultures; highest concentration of 10 μM,no toxic effects were observed
same,Gag processing (Western Blot),"[3]; 20 μM PR-619, 4 h, HeLa cells transfected with pNLΔenv",significantly inhibits Gag processing
same,"generation of the main Gag processing product CA (densitometric evaluation, VLP fraction)","[3]; 20 μM PR-619, VLP fraction",clearly inhibited
"COc1ccc(C[C@H](NC(=O)[C@H](C)NC(=O)CN2CCOCC2)C(=O)N[C@@H](Cc2ccccc2)C(=O)[C@@]2(C)CO2)cc1 [PR-957, reference compound]",toxicity (WST assay),"PBMC cultures; 20-160 nM, permanent treatment",did not display any toxicity
same,concentration beginning with which HIV-1 replication is inhibited,HIV-1NL4-3 (X4 tropic); permanent treatment,80 nM
"CCC[C@H](NC(=O)/C(C#N)=C/c1cccc(Br)n1)c1ccccc1 [WP1130, (2E)-3-(6-bromo-2-pyridinyl)-2-cyano-N-[(1S)-1-phenylbutyl]-2-propenamide, reference compound]",toxicity (WST assay),"PBMC cultures; concentration >3 μM, day 13",complete death of the cells
same,reduction in living cells,"PBMC cultures; permanent treatment, 3 μM, day 13",40%
same,HIV-1 replication,HIV-1NL4-3 (X4 tropic); 3 μM and 6 μM,no significant reduction of the HIV-1 replication
same,HIV-1 replication,HIV-1NL4-3 (R5 tropic); 3 μM and 6 μM,no significant reduction of the HIV-1 replication
"CC(C)C[C@H](NC(=O)[C@H](Cc1ccccc1)NC(=O)c1cnccn1)B(O)O [bortezomib, reference compound]",reduction in living cells,"PBMC cultures; 16 nM, permanent treatment",60%
same,toxicity (WST assay),"PBMC cultures; 0.6-5.3 nM, permanent treatment",did not display any toxicity
same,concentration beginning with which HIV-1 replication is inhibited,HIV-1NL4-3 (X4 tropic); permanent treatment,5.3 nM
same,concentration beginning with which HIV-1 replication is inhibited,"HIV-1NL4-3 (R5 tropic); permanent treatment, substance alone",5.3 nM
